From patent US20210076698A1, “METHODS OF MAINTAINING OR INCREASING GROWTH OR COGNITIVE DEVELOPMENT” (FONTERRA CO-OPERATIVE GROUP LIMITED, priority 2007, published 2021)

Columns and labels:
neuronal out growth = settings: cited from earlier work
cholera toxin = cholera toxin (Vibrio cholerae serotype O1, UniProt P01556); settings: cited from earlier work
human placenta = experiment: Placental transfer trial, dual perfused human placental lobules (Example 3); format: in vitro ADME
Source text: Dual perfused human lobules were taken from six placentae of uncomplicated term pregnancies (normal elective Caesarean patients). Maternal and fetal arterial and venous supplies were isolated, catheterised and the placenta maintained by perfusion of sterile krebs buffer (that also contains serum albumin to aid transport of lipophilic substances) at room temperature in a sterile air perfusion chamber at constant flow rate and pressure. The perfusion technique used was modified from Glance et al (1984) according to Collier et al (2004).
Equilibration was performed for 60 min to assess physical integrity of tissue and circuits (fetal arterial pressure <40 mmHg and leakage of perfusate from fetal to maternal circuit <2 ml/h) then the maternal and fetal reservoirs replaced with fresh media containing doses of test substances. Time zero and then hourly samples are collected from all circuits and stored frozen for analysis. Metabolic viability of the preparation is assessed with samples collected hourly from maternal and fetal arteries and analysed for oxygen and carbon dioxide saturation, electrolytes and glucose consumption (Bayer 865 Blood Gas Analyzer, Bayer Diagnostics and lactate production (Hitachi 917, Roche Diagnostics). 10 μg/mL of milk-derived ganglioside mixture (GM3+GD3—isolated from G600™ precursor described above) was added to the maternal reservoir. Perfusion was conducted for up to 3 hours using a closed loop system. Samples were taken from both reservoirs at that point (t=0) and at regular time-points, snap frozen in liquid nitrogen, and subsequently assayed for GM3, GD3, and lobule viability.
GM3 and GD3 contents of the perfusates were measured by LC-MS using a Hypersil APS2 column, normal phase acetonitrile gradient and detected in the LTQ orbitrap in negative ion full scan, as described below. Perfusate samples were “protein crashed” by addition into methanol, allowed to stand for 60 min at 4° C. before centrifugation (20,000×g). An aliquot (10-50 μL) was loaded onto an online C18 trap, washed (50% MeOH), before eluted onto a Hypersil APS2 column (Thermo Finnigan, MA, USA). Gangliosides were separated on a normal phase gradient, and detected in the LTQ Orbitrap Mass spectrometer (ThermoFinnigan, Ma, USA) in negative ion mode. The LC-MS system was calibrated using GD3 and GM3 standards purchased from Matreya (Pa, USA). Lobule viability was assessed by Glucose uptake and lactate production, measured with an Autoanalyzer.

[1] = rats (Hungund et al, 1993); cited from earlier work
[2] = 10 μg/mL GM3+GD3 mixture in maternal reservoir, perfusion up to 3 hours

Chain of cholera toxin (P01556 22-124 limits assumed): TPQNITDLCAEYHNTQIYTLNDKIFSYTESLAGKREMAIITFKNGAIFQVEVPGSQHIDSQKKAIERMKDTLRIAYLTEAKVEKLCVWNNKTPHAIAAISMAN

In the case of 9-O-acetyl GD3 [reference compound], the “effect on neuronal out growth” value (neuronal out growth) is listed as “promotes”.
For GD1a, the “binding of cholera toxin” value (cholera toxin) is listed as “negligible binding”.
For GD3, the “concentrations in foetal perfusate” value (human placenta; LC-MS) is given as “below assay sensitivity”, the “reduction in maternal concentrations” value (human placenta; average, all cases) is given as 25-30% and the “effect on neuronal out growth” value (neuronal out growth) is given as “does not”.
For GM2, the “binding of cholera toxin” value (cholera toxin) is listed as “negligible binding”.
With GM3 the “increase of foetal perfusate concentration over time” value (human placenta; [2]) was “approximately 6 fold”, the “transfer across the human placenta” value (human placenta; [2]) was “evidence of transfer” and the “reduction of maternal perfusate concentration” value (human placenta; on average, from the starting maternal concentration) was “half”. For the same substance, the “maternal perfusate concentration before reduction” value (human placenta; starting level in maternal perfusate) was “approximately 300 ng/ml”.
In the case of Ganglioside GM1a, the “crossing of the placenta” value [1] is given as “cross the placenta”.
In the case of ganglioside GM1, the “binding of cholera toxin” value (cholera toxin) is given as “specific”.
